Laboratory results: US20260022142A1, “MACROCYCLIC IMMUNOMODULATORS” (Bristol-Myers Squibb Company, priority 2022, published 2026)
Numbered stars: 1 amine (or outer) side, 2 acyl side, 3 side chain; on linkers, the order of the positions; unused ones are H or OH. Bridge positions count the residues as written; N and C are the ends. Square brackets hold non-standard residues; d marks the D form. Peptide text beside a SMILES is read from it. * marks the point of attachment. Phe(3-CF3) = N[C@@H](Cc1cccc(C(F)(F)F)c1)C(=O)O; Phe(4-COOH) = N[C@@H](Cc1ccc(C(=O)O)cc1)C(=O)O; Bip = N[C@@H](Cc1ccc(-c2ccccc2)cc1)C(=O)O; NH(CH2)14COOH = O=C(O)CCCCCCCCCCCCCCN*; Phe(3-Me) = Cc1cccc(C[C@H](N)C(=O)O)c1; γGlu = O=C(O)[C@H](CCC(=O)[*:2])N[*:1]; NH(CH2)12COOH = O=C(O)CCCCCCCCCCCCN*; Val(3-OH) = CC(C)(O)[C@H](N)C(=O)O; Cha = N[C@@H](CC1CCCCC1)C(=O)O; aThr = C[C@H](O)[C@H](N)C(=O)O; Dap(Me) = CNC[C@H](N)C(=O)O; dDab = NCC[C@@H](N)C(=O)O; Carboxymethyl = O=C(O)C*; Nle = CCCC[C@H](N)C(=O)O; Orn = NCCC[C@H](N)C(=O)O; Dab = NCC[C@H](N)C(=O)O; AEEA = NCCOCCOCC(=O)O

Target: T1, PD-1/PD-L1 interaction (PE-labeled human PD-L1-Ig binding to Jurkat cell line over-expressing human PD-1) (Homo sapiens, UniProt Q15116)
T1 construct: expressed in transfected cells; host or cells: Jurkat
T1 sequence (Q15116 25-288): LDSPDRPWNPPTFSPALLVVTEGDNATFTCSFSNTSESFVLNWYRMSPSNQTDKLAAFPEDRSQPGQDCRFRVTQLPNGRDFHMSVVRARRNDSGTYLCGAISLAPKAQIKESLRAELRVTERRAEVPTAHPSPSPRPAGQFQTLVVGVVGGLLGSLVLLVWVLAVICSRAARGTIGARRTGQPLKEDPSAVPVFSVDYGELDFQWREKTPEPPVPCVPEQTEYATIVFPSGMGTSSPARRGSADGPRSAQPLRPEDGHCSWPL
Assay: Jurkat-PD-1 Cell Binding High-Content Screening Assay (CBA)
Format: cell-based
Conditions: Jurkat cell line over-expressing human PD-1; PE-labeled PD-L1-Ig 20 nM final; read-out: Jurkat hPD1-PDL1 IC50
How it was run: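 First, compound is added to PD-1-expressing Jurkat cells in serum-containing DMEM and left 2 h at 37° C. Next, PE-conjugated PD-L1-Ig is introduced at 20 nM final concentration for 1 hour. Finally, cells are fixed in 4% paraformaldehyde with Hoechst 33342, washed and imaged.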

Cc1cccc(C[C@@H]2NC(=O)[C@H](CC(=O)O)NC(=O)[C@H](Cc3ccc(OCC(=O)O)cc3)NC(=O)[C@H](CC(C)C)NC(=O)CSC[C@@H](C(=O)N[C@@H](CCN)C(=O)NCCOCCOCC(=O)N[C@@H](CCC(=O)O)C(=O)N[C@@H](CCC(=O)NCCOCCOCC(=O)NCCCCCCCCCCCCCCC(=O)O)C(=O)O)NC(=O)[C@H](CC(=O)O)NC(=O)[C@H](C(C)(C)O)NC(=O)[C@H](CC3CCCCC3)NC(=O)[C@H](CCN)NC(=O)[C@@H](CC(C)C)NC(=O)[C@H](CCCN)NC(=O)[C@H](Cc3ccc(C(=O)O)cc3)NC(=O)[C@H](Cc3ccc(-c4ccccc4)cc3)NC(=O)[C@H](Cc3ccc(C(=O)O)cc3)NC2=O)c1 [Compound 3892] ({CH2CO}-LY(Carboxymethyl)D[Phe(3-Me)][Phe(4-COOH)][Bip][Phe(4-COOH)][Orn][dL][Dab][Cha][Val(3-OH)]DC[Dab][AEEA]E[γGlu][AEEA]-{NH(CH2)14COOH}; thioether N-14)
IC50: 388 nM

CCCC[C@@H]1NC(=O)CSC[C@@H](C(=O)N[C@@H](CCN)C(=O)NCCOCCOCC(=O)N[C@@H](CO)C(=O)N[C@H](CCC(=O)NCCCCCCCCCCCCCCC(=O)O)C(=O)O)NC(=O)[C@H](CC(=O)O)NC(=O)[C@H](C(C)(C)O)NC(=O)[C@H](CC2CCCCC2)NC(=O)[C@H](CCN)NC(=O)[C@@H](CC(C)C)NC(=O)[C@H](CCCN)NC(=O)[C@H](Cc2ccc(OCC(=O)O)cc2)NC(=O)[C@H](Cc2ccc(-c3ccccc3)cc2)NC(=O)[C@H](Cc2ccc(C(=O)O)cc2)NC(=O)[C@H](Cc2cccc(C)c2)NC(=O)[C@H](CC(=O)O)NC(=O)[C@H](Cc2ccc(OCC(=O)O)cc2)NC1=O [Compound 3893] ({CH2CO}-[Nle]Y(Carboxymethyl)D[Phe(3-Me)][Phe(4-COOH)][Bip]Y(Carboxymethyl)[Orn][dL][Dab][Cha][Val(3-OH)]DC[Dab][AEEA]S[dE](NH(CH2)14COOH)-OH; thioether N-14)
IC50: 369 nM

CCCC[C@@H]1NC(=O)CSC[C@@H](C(=O)N[C@@H](CCN)C(=O)NCCOCCOCC(=O)N[C@@H](CO)C(=O)N[C@H](CCC(=O)NCCCCCCCCCCCCCCC(=O)O)C(=O)O)NC(=O)[C@H](Cc2cnc[nH]2)NC(=O)[C@H](C(C)(C)O)NC(=O)[C@H](CC2CCCCC2)NC(=O)[C@H](CCN)NC(=O)[C@@H](CC(C)C)NC(=O)[C@H](CCCN)NC(=O)[C@H](Cc2ccc(OCC(=O)O)cc2)NC(=O)[C@H](Cc2ccc(-c3ccccc3)cc2)NC(=O)[C@H](Cc2ccc(C(=O)O)cc2)NC(=O)[C@H](Cc2cccc(C)c2)NC(=O)[C@H](CC(=O)O)NC(=O)[C@H](Cc2ccc(OCC(=O)O)cc2)NC1=O [Compound 3894] ({CH2CO}-[Nle]Y(Carboxymethyl)D[Phe(3-Me)][Phe(4-COOH)][Bip]Y(Carboxymethyl)[Orn][dL][Dab][Cha][Val(3-OH)]HC[Dab][AEEA]S[dE](NH(CH2)14COOH)-OH; thioether N-14)
IC50: 106 nM

CNC[C@@H]1NC(=O)CSC[C@@H](C(=O)N[C@@H](CCN)C(=O)NCCOCCOCC(=O)N[C@@H](CO)C(=O)NCCCCCCCCCCCCCCC(=O)O)NC(=O)[C@H](CCC(=O)O)NC(=O)[C@H](C(C)C)NC(=O)[C@H](CC2CCCCC2)NC(=O)[C@H](CCN)NC(=O)[C@@H](CC(C)C)NC(=O)[C@H](CCCN)NC(=O)[C@H](Cc2ccc(C(=O)O)cc2)NC(=O)[C@H](Cc2ccc(-c3ccccc3)cc2)NC(=O)[C@H](Cc2ccc(C(=O)O)cc2)NC(=O)[C@H](Cc2cccc(C(F)(F)F)c2)NC(=O)[C@H](CC(=O)O)NC(=O)[C@H](Cc2ccc(OCC(=O)O)cc2)NC1=O [Compound 3895] ({CH2CO}-[Dap(Me)]Y(Carboxymethyl)D[Phe(3-CF3)][Phe(4-COOH)][Bip][Phe(4-COOH)][Orn][dL][Dab][Cha]VEC[Dab][AEEA]S-{NH(CH2)14COOH}; thioether N-14)
IC50: 49.4 nM

CNC[C@@H]1NC(=O)CSC[C@@H](C(=O)N[C@@H](CCN)C(=O)NCCOCCOCC(=O)NCCCCCCCCCCCCCCC(=O)O)NC(=O)[C@H](CCC(=O)O)NC(=O)[C@H](C(C)C)NC(=O)[C@H](CC2CCCCC2)NC(=O)[C@H](CCN)NC(=O)[C@@H](CC(C)C)NC(=O)[C@H](CCCN)NC(=O)[C@H](Cc2ccc(C(=O)O)cc2)NC(=O)[C@H](Cc2ccc(-c3ccccc3)cc2)NC(=O)[C@H](Cc2ccc(C(=O)O)cc2)NC(=O)[C@H](Cc2cccc(C(F)(F)F)c2)NC(=O)[C@H](CC(=O)O)NC(=O)[C@H](Cc2ccc(C(=O)O)cc2)NC1=O [Compound 3896] ({CH2CO}-[Dap(Me)][Phe(4-COOH)]D[Phe(3-CF3)][Phe(4-COOH)][Bip][Phe(4-COOH)][Orn][dL][Dab][Cha]VEC[Dab][AEEA]-{NH(CH2)14COOH}; thioether N-14)
IC50: 224 nM

CCCC[C@@H]1NC(=O)CSC[C@@H](C(=O)N[C@H](CCN)C(=O)NCCOCCOCC(=O)N[C@@H](CCC(=O)NCCOCCOCC(=O)NCCCCCCCCCCCCC(=O)O)C(=O)O)NC(=O)[C@H](CCC(=O)O)NC(=O)[C@H](C(C)C)NC(=O)[C@H](CC2CCCCC2)NC(=O)[C@H](CCN)NC(=O)[C@@H](CC(C)C)NC(=O)[C@H](CCCN)NC(=O)[C@H](Cc2ccc(OCC(=O)O)cc2)NC(=O)[C@H](Cc2ccc(-c3ccccc3)cc2)NC(=O)[C@H](Cc2ccc(C(=O)O)cc2)NC(=O)[C@H](Cc2cccc(C(F)(F)F)c2)NC(=O)[C@H](CC(=O)O)NC(=O)[C@H](Cc2ccc(OCC(=O)O)cc2)NC1=O [Compound 3897] ({CH2CO}-[Nle]Y(Carboxymethyl)D[Phe(3-CF3)][Phe(4-COOH)][Bip]Y(Carboxymethyl)[Orn][dL][Dab][Cha]VEC[dDab][AEEA][γGlu][AEEA]-{NH(CH2)12COOH}; thioether N-14)
IC50: 63.6 nM

CC(=O)NCCCC[C@@H]1NC(=O)[C@H](C(C)(C)O)NC(=O)[C@H](CC2CCCCC2)NC(=O)[C@H](CCN)NC(=O)[C@@H](CC(C)C)NC(=O)[C@H](CCCN)NC(=O)[C@H](Cc2ccc(OCC(=O)O)cc2)NC(=O)[C@H](Cc2ccc(-c3ccccc3)cc2)NC(=O)[C@H](Cc2ccc(C(=O)O)cc2)NC(=O)[C@H](Cc2cccc(C(F)(F)F)c2)NC(=O)[C@H](CC(=O)O)NC(=O)[C@H](Cc2ccc(OCC(=O)O)cc2)NC(=O)[C@H]([C@H](C)O)NC(=O)CSC[C@@H](C(=O)N[C@H](CCN)C(=O)NCCOCCOCC(=O)N[C@@H](CCC(=O)NCCOCCOCC(=O)NCCCCCCCCCCCCC(=O)O)C(=O)O)NC1=O [Compound 3899] ({CH2CO}-[aThr]Y(Carboxymethyl)D[Phe(3-CF3)][Phe(4-COOH)][Bip]Y(Carboxymethyl)[Orn][dL][Dab][Cha][Val(3-OH)]K(Ac)C[dDab][AEEA][γGlu][AEEA]-{NH(CH2)12COOH}; thioether N-14)
IC50: 27.4 nM

CC(C)C[C@H]1NC(=O)[C@H](CCCN)NC(=O)[C@H](Cc2ccc(C(=O)O)cc2)NC(=O)[C@H](Cc2ccc(-c3ccccc3)cc2)NC(=O)[C@H](Cc2ccc(C(=O)O)cc2)NC(=O)[C@H](Cc2cccc(C(F)(F)F)c2)NC(=O)[C@H](CC(=O)O)NC(=O)[C@H](Cc2ccc(OCC(=O)O)cc2)NC(=O)[C@H](CO)NC(=O)CSC[C@@H](C(=O)N[C@@H](CCN)C(=O)NCCOCCOCC(=O)N[C@@H](CO)C(=O)N[C@@H](CO)C(=O)N[C@@H](CO)C(=O)N[C@@H](CO)C(=O)N[C@@H](CCC(=O)NCCCCCCCCCCCCCCC(=O)O)C(=O)O)NC(=O)[C@H](CO)NC(=O)[C@H](C(C)(C)O)NC(=O)[C@H](CC2CCCCC2)NC(=O)[C@H](CCN)NC1=O [Compound 3900] ({CH2CO}-SY(Carboxymethyl)D[Phe(3-CF3)][Phe(4-COOH)][Bip][Phe(4-COOH)][Orn][dL][Dab][Cha][Val(3-OH)]SC[Dab][AEEA]SSSSE(NH(CH2)14COOH)-OH; thioether N-14)
IC50: 185 nM
